Experiments:
[1] = tested on: co-culture of keratinocytes and melanocytes; test: Cytotoxicity by estimation of the incorporation of leucine; assay type: cell-based
Method: The modulatory effect of compound 1 on melanogenesis was measured by the method described in patent FR-[…]. Schmidt, P. […], Anal. Biochem., 235(2), 113-18, 1996. This test is carried out on a co-culture of keratinocytes and melanocytes. […] The test was also carried out with arbutin and kojic acid, which are known depigmenting compounds.

[2] = tested on: co-culture of keratinocytes and melanocytes; test: Inhibitory activity on melanin synthesis (constitutive melanogenesis), ratio of thiouracil to leucine incorporation; assay type: cell-based; details: for IC50: thiouracil/leucine incorporation ratio relative to 100% of the control, read-out: IC50 (concentration for which 50% of the synthesis of melanin is inhibited)
Method: The modulatory effect of compound 1 on melanogenesis was measured by the method described in patent FR-A-2 734 825 and also in the article by R. Schmidt, P. Krien and M. Régnier, Anal. Biochem., 235(2), 113-18, 1996. This test is carried out on a co-culture of keratinocytes and melanocytes.
For the compound tested, the following parameters were ascertained: • the cytotoxicity, by estimation of the incorporation of leucine, • the inhibitory activity on melanin synthesis, by estimating the ratio of incorporation of thiouracil to the incorporation of leucine, relative to 100% of the control (the control corresponds to the test carried out without compound tested). The IC50 values (concentration for which 50% of the synthesis of melanin is inhibited) were ascertained.
The test was also carried out with arbutin and kojic acid, which are known depigmenting compounds.

IC50 [2] [µM]	melting point [°C]	SMILES	Cytotoxicity on co-culture [1]	efficacy in inhibiting melanogenesis compared with arbutin and kojic acid [2]
52	–	O=C1CC(=O)C(Cc2ccc(O)cc2O)C1 (centres unmarked)	Non-cytotoxic	–
> 500	–	OC[C@H]1O[C@@H](Oc2ccc(O)cc2)[C@H](O)[C@@H](O)[C@@H]1O [Arbutin, reference compound]	Non-cytotoxic	–
–	–	O=C1CC(Cc2ccc(O)cc2O)C(=O)N1 (centres unmarked) [Compound 1, 3-(2,4-dihydroxybenzyl)pyrrolidine-2,5-dione]	–	more effective than arbutin and kojic acid
–	122 to 123	CCCCN1C(=O)CC(Cc2ccc(O)cc2O)C1=O (centres unmarked) [Compound 7, 3-(2,4-dihydroxybenzyl)-1-butylpyrrolidine-2,5-dione]	–	more effective than arbutin and kojic acid
–	–	O=C1CC(Cc2ccc(O)cc2O)C(=O)N1CCO (centres unmarked) [Compound 12, 3-(2,4-dihydroxybenzyl)-1-(2-hydroxyethyl)pyrrolidine-2,5-dione]	–	more effective than arbutin and kojic acid
–	–	CCOC(=O)CN1C(=O)CC(Cc2ccc(O)cc2O)C1=O (centres unmarked) [Compound 32, ethyl [3-(2,4-dihydroxybenzyl)-2,5-dioxopyrrolidin-1-yl]acetate]	–	more effective than arbutin and kojic acid
> 500	–	O=c1cc(CO)occ1O [Kojic acid, reference compound]	100 µM	–
8.3	–	CCCCN1C(=O)CC(Cc2ccc(O)cc2O)C1=O (centres unmarked) [drawing 126]	Non-cytotoxic	–
9.2	–	CCOC(=O)CN1C(=O)CC(Cc2ccc(O)cc2O)C1=O (centres unmarked) [drawing 128]	Non-cytotoxic	–
14.9	–	O=C1CC(Cc2ccc(O)cc2O)C(=O)N1CCO (centres unmarked) [drawing 129]	Non-cytotoxic	–
